Test results as given in patent US7312228B2, “Cytotoxic indeno and isoindoloisoquinolones” (Purdue Research Foundation, priority 2003, dated 2007).
Values joined by “and” are separate entries in the source; they are usually repeats but may differ in a detail not shown here. Identical values can stand only once. Like-named read-outs stand apart in the source and are kept apart here.

Key:
SN12C = test: NCI screen antiproliferative activity, renal SN12C; assay type: cell-based; details: Homo sapiens, concentration corresponding to 50% growth inhibition, read-out: cytotoxicity (GI50) renal SN12C
Experimental: (§1) Selected indenoisoquinolones described herein were examined for antiproliferative activity against the human cancer cell lines in the National Cancer Institute screen, in which the activity of each compound was evaluated with approximately 55 different cancer cell lines of diverse tumor origins.

SF-539 = test: NCI screen antiproliferative activity, CNS SF-539; assay type: cell-based; details: Homo sapiens, concentration corresponding to 50% growth inhibition, read-out: cytotoxicity (GI50) CNS SF-539
Experimental: as §1

human cancer cell lines = test: NCI screen mean graph midpoint over approximately 55 cancer cell lines; assay type: cell-based; details: for GI50: read-out: MGM (mean graph midpoint for growth inhibition); for cytotoxicity compared with other compounds: human cancer cell cultures
Experimental: Selected indenoisoquinolones described herein were examined for antiproliferative activity against the human cancer cell lines in the National Cancer Institute screen, in which the activity of each compound was evaluated with approximately 55 different cancer cell lines of diverse tumor origins. […] The relative activities of selected indenoisoquinolines described herein were obtained from the top 1-mediated DNA cleavage assay, and are also shown in Table 1. Compounds 2 and 7 are also included the Table 1.

UACC-62 = test: NCI screen antiproliferative activity, melanoma UACC-62; assay type: cell-based; details: Homo sapiens, concentration corresponding to 50% growth inhibition, read-out: cytotoxicity (GI50) melanoma UACC-62
Experimental: as §1

OVCAR-3 = test: NCI screen antiproliferative activity, ovarian OVCAR-3; assay type: cell-based; details: Homo sapiens, concentration corresponding to 50% growth inhibition, read-out: cytotoxicity (GI50) ovarian OVCAR-3
Experimental: as §1

HOP-62 = test: NCI screen antiproliferative activity, lung HOP-62; assay type: cell-based; details: Homo sapiens, concentration corresponding to 50% growth inhibition, read-out: cytotoxicity (GI50) lung HOP-62
Experimental: as §1

MDA-MB-435 = test: NCI screen antiproliferative activity, breast MDA-MB-435; assay type: cell-based, human; details: concentration corresponding to 50% growth inhibition, read-out: cytotoxicity (GI50) breast MDA-MB-435
Experimental: as §1

HCT-116 = test: NCI screen antiproliferative activity, colon HCT-116; assay type: cell-based; details: Homo sapiens, concentration corresponding to 50% growth inhibition, read-out: cytotoxicity (GI50) colon HCT-116
Experimental: as §1

Human recombinant top1 = target: T1, Human recombinant top1 (Homo sapiens, UniProt P11387); test: Top1-mediated DNA cleavage reactions; assay type: biochemical; set-up: key to Top 1 Cleavage: weak activity (+); activity similar to compound 2 (++); activity greater than compound 2 (+++); details: for Top 1 Cleavage: tested at concentrations ranging up to 10 μM, relative to compound 2
T1 construct: made in house
T1 sequence (P11387 1-765): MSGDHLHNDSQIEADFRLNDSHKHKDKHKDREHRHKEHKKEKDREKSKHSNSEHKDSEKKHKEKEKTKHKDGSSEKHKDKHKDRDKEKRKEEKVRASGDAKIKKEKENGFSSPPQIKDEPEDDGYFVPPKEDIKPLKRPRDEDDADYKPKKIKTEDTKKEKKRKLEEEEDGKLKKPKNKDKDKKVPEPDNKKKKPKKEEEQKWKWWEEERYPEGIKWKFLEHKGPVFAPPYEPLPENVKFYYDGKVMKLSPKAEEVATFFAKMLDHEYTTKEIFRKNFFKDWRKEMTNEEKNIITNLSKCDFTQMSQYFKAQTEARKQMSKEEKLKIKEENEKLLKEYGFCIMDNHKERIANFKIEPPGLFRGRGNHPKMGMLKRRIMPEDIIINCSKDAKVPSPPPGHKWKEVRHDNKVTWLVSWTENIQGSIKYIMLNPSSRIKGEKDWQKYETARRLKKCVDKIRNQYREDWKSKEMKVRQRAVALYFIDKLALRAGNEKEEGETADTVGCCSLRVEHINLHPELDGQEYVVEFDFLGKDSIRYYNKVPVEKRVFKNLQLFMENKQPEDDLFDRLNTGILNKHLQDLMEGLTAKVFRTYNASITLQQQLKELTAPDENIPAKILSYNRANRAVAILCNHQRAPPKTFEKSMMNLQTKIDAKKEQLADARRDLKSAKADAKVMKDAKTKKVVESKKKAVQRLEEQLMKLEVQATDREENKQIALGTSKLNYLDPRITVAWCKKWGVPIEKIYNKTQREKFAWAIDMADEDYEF
Experimental: Human recombinant top1 was purified from Baculovirus as described by Pourquier et al. in J. Biol. Chem. 274:8516-23 (1999), the disclosure of which is incorporated herein by reference. The 161 bp fragment from pBluescript SK(−) phagemid DNA (Stratagene, La Jolla, Calif.) was cleaved with the restriction endonuclease Pvu II and Hind III (New England Biolabs, Beverly, Mass.) in supplied NE buffer 2 (10 μL reactions) for 1 h at 37° C., and separated by electrophoresis in a 1% agarose gel made in 1×TBE buffer. The 161 bp fragment was eluted from the gel slice (centrilutor by Amicon) and concentrated in a centricon 50 centrifugal concentrator (Amicon, Beverly, Mass.). Approximately 200 ng of the fragment was 3′-end labeled at the Hind III site by fill-in reaction with [alpha-^32P]-dGTP and 0.5 mM dATP, dCTP, and dTTP, in React 2 buffer (50 mM Tris-HCl, pH 8.0, […], 50 mM NaCl) with 0.5 units of DNA polymerase I (Klenow fragment). Unincorporated ^32P-dGTP was removed using mini Quick Spin DNA columns (Roche, Indianapolis, Ind.), and the eluate containing the 3′-end-labeled 161 bp fragment was collected. Aliquots (approximately 50,000 dpm/reaction) were incubated with top1 at 22° C. for 30 min in the presence of the tested drug. Reactions were terminated by adding SDS (0.5% final concentration). The samples (10 μL) were mixed with 30 μL of loading buffer (80% formamide, 10 mM sodium hydroxide, 1 mM sodium EDTA, 0.1% xylene cyanol, and 0.1% bromophenol blue, pH 8.0). Aliquots were separated in denaturing gels (16% polyacrylamide, 7 M urea). Gels were dried and visualized by using a Phosphoimager and ImageQuant software (Molecular Dynamics, Sunnyvale, Calif.).

DU-145 = test: NCI screen antiproliferative activity, prostate DU-145; assay type: cell-based; details: Homo sapiens, concentration corresponding to 50% growth inhibition, read-out: cytotoxicity (GI50) prostate DU-145
Experimental: as §1

Work on `O=c1c2ccccc2cc2n1Cc1cc3ccccc3nc1-2` [compound 13, 12H-5,11a-Diaza-dibenzo[b,h]fluoren-11-one] yielded a GI50 (SN12C) greater than 100 µM, a GI50 (SF-539) of 66.7 µM and a GI50 (human cancer cell lines; Homo sapiens) of 58.9 µM. The “cytotoxicity compared with other compounds” value (human cancer cell lines) was “generally less cytotoxic than compound 2”, the GI50 (UACC-62) was 97.2 µM and the GI50 (OVCAR-3) was 39.8 µM. It also gave a GI50 (HOP-62) of 68.2 µM, a GI50 (MDA-MB-435; Homo sapiens) of 41.8 µM and a GI50 (HCT-116) of 32.7 µM. The “pattern of top1-mediated DNA cleavage sites” value (Human recombinant top1) was “better resembled that of compound 2 than that of camptothecin”, the “Top 1 Cleavage” value (Human recombinant top1) was “++” and the GI50 (DU-145) was greater than 100 µM.
Molecule `COc1cc2c3c(n(C)c(=O)c2cc1OC)-c1cc2c(cc1C3=CCCCCBr)OCO2` [compound 20, 11-(5′-Bromopentylidene)-5,6-dihydro-2,3-dimethoxy-6-methyl-8,9-methylenedioxy-5-oxo-11H-indeno[1,2-c]isoquinoline] has a GI50 (SN12C) greater than 100 µM, a GI50 (human cancer cell lines; Homo sapiens) of 33.1 µM and a GI50 (UACC-62) greater than 100 µM. The GI50 (OVCAR-3) was greater than 100 µM, the melting point was 196 to 197 °C and the GI50 (MDA-MB-435; Homo sapiens) was greater than 100 µM. For the same molecule, the “top1 inhibitory activity compared with other compounds” value (Human recombinant top1) was “higher inhibitory activity against top1 than the four-carbon alkenyl halides 19 and 24”.
`COc1cc2c3c(n(C)c(=O)c2cc1OC)-c1cc2c(cc1C3=CCCCCl)OCO2` [compound 18, 11-(4′-Chlorobutylidene)-5,6-dihydro-2,3-dimethoxy-6-methyl-8,9-methylenedioxy-5-oxo-11H-indeno[1,2-c]isoquinoline] showed a GI50 (SN12C) greater than 100 µM, a GI50 (human cancer cell lines; Homo sapiens) of 33.1 µM and a melting point of 196 to 201 °C. For the same molecule, the GI50 (MDA-MB-435; Homo sapiens) was greater than 100 µM and the “Top 1 Cleavage” value (Human recombinant top1) was “+”.
Work on `COc1cc2cc3n(c(=O)c2cc1OC)Cc1cc2ccccc2nc1-3` [compound 8, 8,9-Dimethoxy-12H-5,11a-diaza-dibenzo[b,h]fluoren-11-one] yielded a GI50 (SN12C) greater than 100 µM, a GI50 (SF-539) greater than 100 µM and a GI50 (human cancer cell lines; Homo sapiens) of 91.2 µM. For the same molecule, the “cytotoxicity compared with other compounds” value (human cancer cell lines) was “generally less cytotoxic than compound 2”, the GI50 (UACC-62) was greater than 100 µM and the GI50 (OVCAR-3) was greater than 100 µM. For the same molecule, the GI50 (HOP-62) was greater than 100 µM, the GI50 (MDA-MB-435; Homo sapiens) was greater than 100 µM and the GI50 (HCT-116) was 57.3 µM. For the same molecule, the “Top 1 Cleavage” value (Human recombinant top1) was “+” and the GI50 (DU-145) was greater than 100 µM.
`COc1cc2c3c(n(C)c(=O)c2cc1OC)-c1cc2c(cc1C3=CCCCBr)OCO2` [compound 19, 11-(4′-Bromobutylidene)-5,6-dihydro-2,3-dimethoxy-6-methyl-8,9-methylenedioxy-5-oxo-11H-indeno[1,2-c]isoquinoline] gave a GI50 (SN12C) greater than 100 µM, a GI50 (SF-539) of 30 µM and a GI50 (human cancer cell lines; Homo sapiens) of 27.8 µM. For the same molecule, the GI50 (UACC-62) was 11.4 µM, the GI50 (OVCAR-3) was 58.1 µM and the GI50 (HOP-62) was 19.4 µM. The melting point was 197 to 199 °C, the GI50 (MDA-MB-435; Homo sapiens) was greater than 100 µM and the GI50 (HCT-116) was 37.8 µM. The “Top 1 Cleavage” value (Human recombinant top1) was 0 and the GI50 (DU-145) was 67.8 µM.
In the case of `COc1cc2c3c(n(C)c(=O)c2cc1OC)-c1cc2c(cc1C3=O)OCO2` [compound 2, reference compound], the GI50 (human cancer cell lines; average GI50 of all approximately 55 cell lines, values outside 10^-8 to 10^-4 molar taken as the limits) is reported as 20.0 µM and 20 µM, the GI50 (MDA-MB-435) is reported as 96 µM and the “Top 1 Cleavage” value (Human recombinant top1) is reported as “++”.
For `COc1cc2c3c(n(C)c(=O)c2cc1OC)-c1cc2c(cc1C3=CCCN)OCO2` [compound 26, 11-(3′-Aminopropylidene)-5,6-dihydro-2,3-dimethoxy-6-methyl-8,9-methylenedioxy-5-oxo-11H-indeno[1,2-c]isoquinoline], the GI50 (SN12C) was 0.58 µM, the GI50 (SF-539) was 0.42 µM and the GI50 (human cancer cell lines; Homo sapiens) was 0.34 µM. For the same molecule, the GI50 (UACC-62) was 0.2 µM, the GI50 (OVCAR-3) was 0.56 µM and the GI50 (HOP-62) was 0.071 µM. For the same molecule, the melting point was > 180 °C (dec.), the GI50 (MDA-MB-435; Homo sapiens) was 1.8 µM and the GI50 (HCT-116) was 0.028 µM. The “top1 inhibitory activity compared with other compounds” value (Human recombinant top1) was “more potent as a top1 poison than compound 2”, the “Top 1 Cleavage” value (Human recombinant top1) was “+++” and the GI50 (DU-145) was 0.37 µM.
In the case of `COc1cc2c3c(n(C)c(=O)c2cc1OC)-c1cc2c(cc1C3=CCCCI)OCO2` [compound 24, 11-(4′-Iodobutylidene)-5,6-dihydro-2,3-dimethoxy-6-methyl-8,9-methylenedioxy-5-oxo-11H-indeno[1,2-c]isoquinoline], the GI50 (SN12C) is reported as 8.8 µM, the GI50 (SF-539) is reported as 4.3 µM and the GI50 (human cancer cell lines; Homo sapiens) is reported as 16.8 µM. For the same molecule, the “cytotoxicity compared with other compounds” value (human cancer cell lines) was “slightly more cytotoxic than compounds 18-20”, the GI50 (UACC-62) was 3.5 µM and the GI50 (OVCAR-3) was 22.8 µM. It also gave a GI50 (HOP-62) of 27.6 µM, a melting point of 173 to 174.5 °C and a GI50 (MDA-MB-435; Homo sapiens) of 5.2 µM. For the same molecule, the GI50 (HCT-116) was 0.56 µM, the “Top 1 Cleavage” value (Human recombinant top1) was 0 and the GI50 (DU-145) was 28.7 µM.
For `COc1cc2c3c(n(C)c(=O)c2cc1OC)-c1cc2c(cc1C3=CCCCCCBr)OCO2` [compound 21, 11-(6′-Bromohexylidene)-5,6-dihydro-2,3-dimethoxy-6-methyl-8,9-methylenedioxy-5-oxo-11H-indeno[1,2-c]isoquinoline], the GI50 (human cancer cell lines; Homo sapiens) was 7.8 µM, the “cytotoxicity compared with other compounds” value (human cancer cell lines) was “slightly more cytotoxic than compounds 18-20” and the melting point was 182 to 185 °C. The “top1 inhibitory activity compared with other compounds” value (Human recombinant top1) was “higher inhibitory activity against top1 than the four-carbon alkenyl halides 19 and 24” and the “Top 1 Cleavage” value (Human recombinant top1) was “+”.
